A word on the IC50: it is the concentration that gives 50% inhibition.

A value given as a limit tells only on which side of the number the result lay.

Data set [1] relates to A549 cells grafted directly into the brain of nude mice. In words: NSCLC cells grafted into the brain, survival. Type of data set: in vivo, human. As to conditions: A549 in brain; Taxol 20 mg/kg, Narciclasine 1 mg/kg once per week during 5 consecutive weeks. Here is the method:
(§1) FIG. 6: anti-tumor effects of Narciclasine versus taxol in human NSCLC (non small cell lung carcinoma) models. The left panel illustrates the lungs of mice bearing lung tumor (tumor tissue is the white nodular one; pink part is the residual normal lung tissue) and hematoxilin eosin staining of the lung tumor (middle) and the brain metastasis that developed into the brain of nude mice after the graft of A549 human NSCLC cells into the lung (lower panel). Anti-tumor effects were evaluated in terms of animal survival when cells are grafted into the lungs (upper right graph) or directly into the brain (right lower panel). Taxol (dose: 20 mg/kg) and Narciclasine (dose: 1 mg/kg) were administered once per week during 5 consecutive weeks.
(§2) We tested also the anti-cancer effects of Narciclasine in non small cell lung carcinoma models (NSCLC). When human NSCLC A549 cells are grafted into the lungs of nude mice, those later develop lung tumors leading after to liver and brain metastases in 80% of the cases (Mathieu A et al, Cancer 2004).

Data set [2] concerns human NSCLC A549 cells grafted into the lungs of nude mice. Nature of the data set: NSCLC model, cells grafted into the lungs, survival. As to conditions: A549 in lungs; Taxol 20 mg/kg, Narciclasine 1 mg/kg once per week during 5 consecutive weeks. Format: in vivo. The method, then: as §1, §2
Data set [3] deals with human melanoma VM-21 cells grafted subcutaneously. Nature of the data set: subcutaneous melanoma model, survival. As to conditions: VM-21 subcutaneous, nude mice; Narciclasine per os. Type of data set: in vivo. The method, then: FIG. 7: anti-tumor effects of Narciclasine in human melanoma models. The left panel illustrates typical hematoxilin eosin staining of subcutaneous tumor and lung metastasis developed when VM-21 human melanoma cells are grafted subcutaneously in nude mice and their corresponding survival analysis. Narciclasine was administered per os while dacarbazine was administered intra-peritoneally. Doses and schedules appear on the graphs (ai X bw meaning “a” administrations per week during “b” weeks). The right panel illustrates typical hematoxilin eosin staining of human melanoma brain tumor developed into the brain when VM-48 human brain metastatic melanoma cells are grafted into the brain of nude mice and their corresponding survival analysis. Narciclasine and temozolomide (TMZ) were administered per os. Doses and schedules appear on the graphs (same legend than left panel).
Similarly, we grafted subcutaneously human melanoma VM-21 cells. This graft leads to tumor formation and further lung metastases as illustrated in FIG. 7. […] VM-48 cells have been isolated from a human brain metastasis of melanoma. We grafted those cells in their original environment, i.e. the brain to mimic human melanoma brain metastasis (FIG. 7).

The next data set concerns mice. The following applies: cited from earlier work.
In data set [4] the test system is VM-48 human brain metastatic melanoma cells grafted into the brain of nude mice. Nature of the data set: melanoma brain metastasis model, survival. Format: in vivo. The following applies: VM-48 in brain; intravenously 1 mg/kg twice a week during 3 consecutive weeks.
The conditions of data set [5]: cited from earlier work.
The subject of data set [6] is Hs683 human glioblastoma cells grafted into the brain of nude mice. In words: human glioblastoma orthotopic model, survival. Type of data set: in vivo. As to conditions: 1 mg/kg once or twice per week during 5 consecutive weeks, intravenous or oral; two glioblastoma models (Hs683; GL-19 in FIG. 5). The method, then: FIG. 5: anti-tumor effects of Narciclasine versus temozolomide in human primary brain tumor models. A and B: hematoxilin eosin staining of the brain tumors that developed into the brain of nude mice after intracranial graft of Hs683 and GL-19 human glioblastoma cells (NB: normal brain). Anti-tumor effects were evaluated in terms of animal survival in C and D. TMZ: temozolomide; schedule of administration is mentioned between brackets (“aXb” meaning “a” administrations per week during “b” weeks).
We evaluated the anti-cancer effects of Narciclasine at non toxic dose in two human glioblastoma (primary brain tumors) models (Hs683-model) that we grafted orthotopically directly into the brain of nude mice. […] The therapeutic schedule used here is even lower (one or two injections per week instead of 5 per week) and the administration route was intravenous or oral. […] The few promising NCI results have been obtained at doses higher than 1 mg/kg administered intraperitoneally or subcutaneously.

In another data set the test system is cancer cells. As to conditions: cited from earlier work.

In the case of `CC(=O)O[C@H]1C(=O)[C@@]2(C)[C@H]([C@H](OC(=O)c3ccccc3)[C@]3(O)C[C@H](OC(=O)[C@H](O)[C@@H](NC(=O)c4ccccc4)c4ccccc4)C(C)=C1C3(C)C)[C@]1(OC(C)=O)CO[C@@H]1C[C@@H]2O` [taxol], the survival benefits result in data set [1] was “became inefficient”. Also, the “survival of the animals” value in data set [2] was “did significantly”.

Take `O=C1N[C@@H]2C(=C[C@H](O)[C@@H](O)[C@H]2O)c2cc3c(c(O)c21)OCO3` [Narciclasine]: the survival benefit result in data set [3] is “could not bring any survival benefit”. Also, the survival benefits entry in data set [1] is “highly and significantly effective”. Also, in the data set with mice (mice), the “maximal dose that can be administered without being toxic” value was “around 1 mg/kg” and the safe chronical dose is 1 mg/kg. Further, the toxicity entry in the data set on mice (rodents, 1 mg/kg 5 times per week during three weeks at least) was “without any toxicity”. Also, the animal survival result in data set [4] is given as “significant increase in terms of animal survival”. Moreover, the plasmatic concentrations in data set [5] (5 mg/kg dose, for few hours only) is recorded as more than 50 nM. Besides, in data set [5] (mouse, in vivo, po), the oral bioavailability is on record as 32%. Also, the “therapeutic benefit in terms of survival” value in data set [6] was “significant and comparable therapeutic benefits”. The “survival of the animals” value in data set [2] is recorded as “did not bring any increase in the survival”. Moreover, the 50% inhibitory concentration (IC50) in the data set with cancer cells is 50 nM.
